Source: US5364931A (Bayer Aktiengesellschaft, priority 1990, dated 1994)

Columns and labels:
HIV protease = molecular target: T1, HIV protease (Human immunodeficiency virus type 1 group M subtype B, UniProt P04585); test: HIV-specific protease enzyme test (RP-HPLC), compounds of formula (I); format: biochemical; conditions: purified HIV protease, synthetic Gag cleavage-site peptide, compounds of general formula (I)
T1 construct: purified HIV protease was incubated with synthetic peptide
Experimental: (§1) The results for the examples listed below were determined by the HIV test system described in the following literature reports [cf. Hansen, J., Billich, S., Schulze, T. Sukrow, S. and Molling, K. (1988), EMBO Journal, Vol. 7, No. 6, pages 1785-1791]: purified HIV protease was incubated with synthetic peptide which imitates a cleavage site in the Gag precursor protein and represents an in vivo cleavage site of the HIV protease. The resulting cleavage products of the synthetic peptide were analysed by means of reverse phase high performance liquid chromatography (RP-HPLC). The IC50 values given relate to the substance concentration which causes a 50% inhibition of protease activity under the abovementioned test conditions.

HIV-I protease = HIV-I protease (Human immunodeficiency virus type 1 group M subtype B, UniProt P04585); conditions: read-out: IC50 (inactivation of HIV-I protease); cited from earlier work
HIV-1 protease = molecular target: T2, HIV-1 protease (Human immunodeficiency virus type 1 group M subtype B, UniProt P04585); test: HIV-specific protease enzyme test (RP-HPLC), HIV-1; format: biochemical
T2 construct: purified HIV protease was incubated with synthetic peptide
Experimental: as §1

HIV-2 protease = molecular target: T3, HIV-2 protease (Human immunodeficiency virus type 2 subtype A, UniProt P04584); test: HIV-specific protease enzyme test (RP-HPLC), HIV-2; format: biochemical; conditions: compounds of general formula (VIa)
T3 construct: purified HIV protease was incubated with synthetic peptide
Experimental: as §1

T3 sequence (P04584 514-612 limits assumed): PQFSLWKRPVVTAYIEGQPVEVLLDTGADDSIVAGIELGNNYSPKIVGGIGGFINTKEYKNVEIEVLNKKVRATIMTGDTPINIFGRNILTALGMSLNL

Row | Molecule | IC50 (HIV protease) [nM] | other results
1 | CCOP(=O)(OCC)C1CCCN1C[C@H](O)[C@H](CC1CCCCC1)NC(=O)OC(C)(C)C (mixture of isomers) [5 (non-polar), Diethyl 1-{(2S, 3S)-3-[(tert-butoxycarbonyl)-amino]-4-cyclohexyl-2-hydroxy-butyl}-(2R and 2S)-2 (pyrrolidinyl)-phosphonate] | 1000 | 
2 | CCOP(=O)(OCC)C1CCCN1C[C@H](O)[C@H](CC1CCCCC1)NC(=O)OC(C)(C)C (mixture of isomers) [5 (polar), Diethyl 1-{(2S, 3S)-3-[(tert-butoxycarbonyl)-amino]-4-cyclohexyl-2-hydroxy-butyl}-(2R and 2S)-2 (pyrrolidinyl)-phosphonate] | 100 | 
3 | O=[N+]([O-])c1ccc(OCC2CO2)cc1 (stereo not drawn) [EPNP, 1,2-epoxy-3-(4-nitrophenoxy)propane] |  | IC50 (HIV-I protease): 450000 nM
4 | CC(C)[C@H](NC(=O)[C@H](Cc1ccccc1)NC(=O)CC(C)(C)C)C(=O)N[C@@H](Cc1ccccc1)C1CO1 (stereo partly drawn) [Example 46] |  | IC50 (HIV-1 protease): 5 nM; IC50 (HIV-2 protease): 10 nM
5 | Diethyl 1-{(3S, 4S)-4-[(2S)-3-(tert-butylsulphonyl)-2-(1-naphthylmethyl)propanoyl]valinylamino]-5-cyclohexyl-3-hydroxy-pentanoyl}-(2R or 2S)-2-(pyrrolidinyl)phosphonate [26 (polar)] | 100 | 
